These are literature values, as cited in patent US8288391B2, “Pyrazinoylguanidine compounds for use as taste modulators” (Parion Sciences, Inc., priority 2007, dated 2012).

Structures are written as SMILES.

For this series, the target named is T1, ENaC (Rattus norvegicus, UniProt P37089+P37090+P37091).
T1 construct: receptor cells in taste buds and some surrounding non-taste epithelia) through apical membrane ENaC; host or cells: rat in vivo: taste nerve (chorda tympani) response, with endogenous channel of lingual taste receptor cells
T1 sequence (P37089 1-698): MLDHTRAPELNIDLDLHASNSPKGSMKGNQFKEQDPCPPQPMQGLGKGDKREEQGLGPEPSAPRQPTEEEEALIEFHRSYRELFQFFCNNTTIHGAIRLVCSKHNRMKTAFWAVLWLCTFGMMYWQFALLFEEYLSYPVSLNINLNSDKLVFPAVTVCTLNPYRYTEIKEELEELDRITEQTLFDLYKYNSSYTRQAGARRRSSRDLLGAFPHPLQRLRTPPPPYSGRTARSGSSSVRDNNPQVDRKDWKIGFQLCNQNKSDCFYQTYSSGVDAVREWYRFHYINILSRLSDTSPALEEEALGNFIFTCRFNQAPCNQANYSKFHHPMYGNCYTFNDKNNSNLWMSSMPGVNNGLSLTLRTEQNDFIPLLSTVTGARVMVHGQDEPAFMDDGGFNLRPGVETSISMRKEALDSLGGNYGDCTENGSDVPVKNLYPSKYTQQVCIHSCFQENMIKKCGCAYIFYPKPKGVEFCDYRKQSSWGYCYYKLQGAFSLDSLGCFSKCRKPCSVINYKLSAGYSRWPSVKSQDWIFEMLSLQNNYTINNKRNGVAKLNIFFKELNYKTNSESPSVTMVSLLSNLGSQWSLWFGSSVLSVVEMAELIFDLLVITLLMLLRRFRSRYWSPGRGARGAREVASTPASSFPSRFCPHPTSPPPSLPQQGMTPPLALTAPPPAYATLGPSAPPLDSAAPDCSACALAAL
T1 sequence (P37090 1-638): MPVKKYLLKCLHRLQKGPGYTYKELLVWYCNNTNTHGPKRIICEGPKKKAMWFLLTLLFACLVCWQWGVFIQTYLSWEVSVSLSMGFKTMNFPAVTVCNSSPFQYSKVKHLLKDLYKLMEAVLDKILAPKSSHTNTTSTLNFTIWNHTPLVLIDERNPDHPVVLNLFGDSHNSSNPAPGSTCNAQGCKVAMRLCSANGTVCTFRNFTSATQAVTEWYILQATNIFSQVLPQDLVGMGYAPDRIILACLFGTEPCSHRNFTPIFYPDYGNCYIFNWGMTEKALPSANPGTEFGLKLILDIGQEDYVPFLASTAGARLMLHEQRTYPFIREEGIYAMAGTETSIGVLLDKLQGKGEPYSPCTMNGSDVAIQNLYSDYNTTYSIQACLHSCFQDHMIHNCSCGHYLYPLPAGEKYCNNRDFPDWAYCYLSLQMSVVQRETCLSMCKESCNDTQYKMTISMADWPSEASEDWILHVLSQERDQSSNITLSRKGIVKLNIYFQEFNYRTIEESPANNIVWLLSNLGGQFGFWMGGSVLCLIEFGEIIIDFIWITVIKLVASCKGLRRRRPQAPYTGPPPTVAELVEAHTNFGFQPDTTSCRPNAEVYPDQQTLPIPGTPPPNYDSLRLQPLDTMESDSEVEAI
T1 sequence (P37091 1-650): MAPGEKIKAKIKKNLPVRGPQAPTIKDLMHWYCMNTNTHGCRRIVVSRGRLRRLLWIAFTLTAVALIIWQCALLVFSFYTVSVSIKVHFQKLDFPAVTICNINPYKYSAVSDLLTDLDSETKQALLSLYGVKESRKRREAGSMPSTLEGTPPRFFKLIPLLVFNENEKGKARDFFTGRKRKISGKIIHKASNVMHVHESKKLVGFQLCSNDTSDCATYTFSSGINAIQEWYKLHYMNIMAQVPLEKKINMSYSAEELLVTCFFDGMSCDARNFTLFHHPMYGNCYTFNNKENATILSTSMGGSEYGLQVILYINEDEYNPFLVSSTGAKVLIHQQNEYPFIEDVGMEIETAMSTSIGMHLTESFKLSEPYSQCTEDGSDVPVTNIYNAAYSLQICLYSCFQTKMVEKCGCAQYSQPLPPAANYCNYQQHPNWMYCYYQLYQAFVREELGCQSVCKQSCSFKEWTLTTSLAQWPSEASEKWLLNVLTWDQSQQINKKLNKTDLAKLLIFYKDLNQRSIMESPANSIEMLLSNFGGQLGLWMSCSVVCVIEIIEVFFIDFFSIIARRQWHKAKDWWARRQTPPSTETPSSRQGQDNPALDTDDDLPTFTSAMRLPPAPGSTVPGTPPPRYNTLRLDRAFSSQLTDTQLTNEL
To be noted: rats; 100 mM NaCl; share of total taste response.

With `N=C(N)NC(=O)c1nc(Cl)c(N)nc1N` [amiloride], the “amiloride-sensitive part of the total response to NaCl” value was 75%-80%.
